The values below come from US20240400579A1, “SPIROCYCLIC MODULATORS OF CHOLESTEROL BIOSYNTHESIS AND THEIR USE FOR PROMOTING REMYELINATION” (GENENTECH, INC., priority 2021, published 2024).

SMILES strings stand for the structures.

The target of assay [1] is human emopamil binding protein and human 7-dehydrocholesterol reductase co-expressing cell membrane (Homo sapiens (Human), UniProt Q15125). As to the kind of experiment: hEBP-DHCR7 radioligand filtration binding assay with [3H]-Compound 118A*. Particulars: radioligand [3H]-Compound 118A*; HEK293 membrane co-expressing hEBP and DHCR7. The method in brief:
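HEK293 membranes transiently co-expressing hEBP and hDHCR7 (10 μg/well) were incubated with [3H]-Compound 118A* (added at 25 nM) and compounds (8 doses, final 0.06–5000 nM, n=2) for 3 h at 22 °C. Bound radioactivity was read after PEI-treated GF/B filtration. IC50 came from a Hill fit of % inhibition and was converted to Ki.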

Assay [2] concerns the target human EBP (Homo sapiens (Human), UniProt Q15125). Description: Competition binding assay (SPA) to determine compound affinity to EBP. Particulars: radioligand [3H]-Ifenprodil 10 nM; Ki=IC50/(1+[L]/Kd); HEK293 membrane; read-out: hEBP SPA Ki. The method, then: Membrane preparation: To examine compound binding affinity to EBP, human EBP was overexpressed in human embryonic kidney 293 cells. Cell pellet was lysed in 10 times weight binding buffer (50 mM Tris, 5 mM MgCl2, 0.1 mM EDTA, 1× protease inhibitor cocktail, pH 7.5) on ice by using a dounce homogenizer. The solution was centrifuged at 25,000 g for 50 min at 4° C. The membrane pellet was re-suspended in binding buffer and run through a 25 5/8 gauge needle. After checking the concentration by Bradford assay, the whole cell membrane solution was adjusted to 20 mg/mL and stored at −80° C.
This binding solution was centrifuged at 400 g for 5 minutes to collect the bead/membrane mixture. After re-suspending the pellet in binding buffer at the same calculated volume with 0.01% BSA (Sigma A1933), the bead/membrane mixture was added in 384-well low-binding surface plate (PerkinElmer Cat #6057480) at 25 i/well. Radioligand at different concentrations with and without the non-radio-labeled same ligand 5 uM (for nonspecific and total signal, respectively) was added to bring final volume to 50 i/well with DMSO concentration at 0.1%. At equilibrium (3 hours after ligand addition), radiometric signal CPM was counted by using a Microbeta2 microplate counter (Perkinelmer).
Competition binding assay to determine compound affinity: The same conditions of the radioligand Kd study were used for compound single dose percentage inhibition and equilibrium dissociation constant Ki examinations, except 50 nL compound DMSO stock was pre-added in 384-well low-binding surface plate (PerkinElmer Cat #6057480) by Echo 550 (Labcyte) to reach the final concentration for single dose test at 1 uM, and dose response test from 0.06 nM to 5 uM (8 dose, 5 times dilution). A pre-incubated bead/membrane mixture was added in compound plate at 0.3 mg beads and […] membrane per well. […] At equilibrium (3 hours after ligand addition), radiometric signal was counted as described above. The percentage inhibition of compound at each testing concentration was calculated by normalizing each condition's CPM readout to full block (5 uM non-radiolabeled ligand) and non-block (DMSO) control conditions. Compound binding inhibition IC50 was determined by nonlinear regression fitting of percentage inhibition plot against compound concentration. Compound Ki was calculated from the equation Ki=IC50/(1+[L]/Kd), which [L] was radioligand concentration used in assay. All tests had N bigger or equal to 2.

The subject of assay [3] is zymostenol accumulation in EpiSC-derived OPCs (EBP). As to the kind of experiment: GC/MS-based sterol profiling, zymostenol accumulation. Format: cell-based, mouse. Particulars: Mus musculus, 24 h, 8 doses from 0.15 nM to 333 nM, read-out: mZymo GCMS EC50. The method in brief: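 EpiSC-derived mouse OPCs plated at 100,000 cells/well in N2B27 without growth factors and treated 24 h. Sterols extracted, silylated with BSTFA and measured by GC/MS (EI, full scan), quantified against cholesterol-d7. Zymostenol normalized to levels after 24 h with 100 nM positive control reference.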

Chain of human emopamil binding protein and human 7-dehydrocholesterol reductase co-expressing cell membrane (Q15125 whole entry): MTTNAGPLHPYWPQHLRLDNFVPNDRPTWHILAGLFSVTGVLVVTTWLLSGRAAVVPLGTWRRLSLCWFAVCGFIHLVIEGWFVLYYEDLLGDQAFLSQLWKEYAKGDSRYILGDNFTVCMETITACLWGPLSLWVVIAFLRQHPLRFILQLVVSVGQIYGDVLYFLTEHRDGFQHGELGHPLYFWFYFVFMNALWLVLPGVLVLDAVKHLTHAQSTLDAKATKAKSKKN
Chain of human EBP (Q15125 whole entry): as above

As usually defined, the Ki is a measure of affinity in units of concentration, obtained from inhibition or displacement. The EC50 is the concentration that produces a half-maximal response. Take `CC(C)(CN1CCC2(C1)CS(=O)(=O)C2)Oc1ccc(F)cc1` [Example 132, 6-(2-(4-Fluorophenoxy)-2-methylpropyl)-2-thia-6-azaspiro[3.4]octane 2,2-dioxide]: the Ki in assay [1] worked out at 14.7 nM; in assay [2], 26 nM. Also, the EC50 in assay [3] came out at 7.2 nM.
